Read-outs that look alike come from different tables or passages of the source.
What was measured:
[1] = molecular target: T1, ESR1 (estrogen receptor 1) (Homo sapiens, UniProt P03372); assay: ATG_ERa_TRANS: Factorial reporter gene assay (HepG2); type: cell-based; settings: HepG2
T1 construct: expressed in transfected cells; host or cells: HepG2
Protocol: (§1) A multiple reporter transcription unit (MRTU) library consisting of 48 transcription factor binding sites was transfected into the HepG2 human liver hepatoma cell line. In addition to the cis-acting reporter genes (CIS), a modification of the approach was used to generate a trans-system (TRANS) with a mammalian one-hybrid assay consisting of an additional 25 MRTU library reporting the activity of nuclear receptor super-family members. […] These assays were performed by Attagene Inc. (Morrisville NC) under contract to EPA.
(§2) In addition to the cis-acting reporter genes (CIS), a modification of the approach was used to generate a trans-system (TRANS) with a mammalian one-hybrid assay consisting of an additional 25 MRTU library reporting the activity of nuclear receptor super-family members. […] Chemicals were then tested in the CIS and TRANS assays at seven concentrations starting at the MTC and followed by three-fold serial dilutions. These assays were performed by Attagene Inc. (Morrisville NC) under contract to EPA. Detailed description of the methods, data and analysis methods for this dataset will be presented in a separate publication.

CYP1A1 = assay: CLZD_CYP1A1: Change in expression of CYP1A1 (primary human hepatocytes); type: cell-based; settings: 24 hr
Protocol: This is a collection of multiplexed gene expression assays focused on Phase I and II xenobiotic metabolizing enzymes and transporters. Human primary cell cultures were treated with chemicals at 5 concentrations (0.004-40 [drawing 42] M) for 6, 24 and 48 hr. Concentration- and time-response profiles of chemicals were measured by the expression of key nuclear receptor target genes, activities of CYP1A enzymes (EROD), and cell morphology. Fourteen gene targets were monitored by quantitative nuclease protection assay including: six representative cytochrome P-450 genes, four hepatic transporters, three Phase II conjugating enzymes, and one endogenous metabolism gene involved in cholesterol synthesis. The target genes associated with nuclear receptor pathways are as follows: [drawing 43] and [drawing 44] with [drawing 45]; [drawing 46] , [drawing 47] , [drawing 48] , [drawing 49] , [drawing 50] and [drawing 51] with [drawing 52]; [drawing 53] , [drawing 54] , [drawing 55] and [drawing 56] with [drawing 57]; [drawing 58] with [drawing 59]; and [drawing 60] with [drawing 61] . Assays were run in primary human hepatocyte cultures by CellzDirect Invitrogen Inc. (Durham, NC), in collaboration with EPA.
Multiplexed Gene Expression in Human Primary Hepatocytes: This is a collection of multiplexed gene expression assays focused on Phase I and II metabolic enzymes and transporters. […] Fourteen gene targets were monitored by quantitative nuclease protection assay: six representative cytochrome P450 genes, four hepatic transporters, three Phase II conjugating enzymes, and one endogenous metabolism gene involved in cholesterol synthesis. Cells were exposed at 5 concentrations (0.004-40 µM) for 6, 24 or 48 hr. Gene targets are sentinels for five nuclear receptor signaling pathways: AhR, CAR, PXR, FXR, and PPARα. All gene are associated with nuclear receptor pathways: CYP1A1 and CYP1A2 with AHR; ABCB1, ABCG2, CYP2B6, CYP2C9, CYP2C19 and UGT1A1 with CAR; CYP3A4, GSTA2, SLCO1B1 and SULT2A1 with PXR; HMGCS2 with PPARA; and ABCB11 with FXR. […] Detailed description of the methods, data and analysis methods for this dataset will be presented in a separate publication.

CYP1A2 = assay: CLZD_CYP1A2: Change in expression of CYP1A2 (primary human hepatocytes); type: cell-based; settings: 24 hr
Method in brief: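 Cultured primary human hepatocytes treated with chemicals for 6, 24 or 48 hr across five concentrations spanning 0.004-40 µM, then transcript level measured by quantitative nuclease protection in a multiplexed format.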

CYP2B6 = assay: CLZD_CYP2B6: Change in expression of CYP2B6 (primary human hepatocytes); type: cell-based; settings: 24 hr
Method in brief: (§3)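 Chemicals are tested in human hepatocyte primary cultures over 0.004-40 µM (5 concentrations) for 6, 24 or 48 hr, and concentration- and time-dependent transcript changes are read by quantitative nuclease protection assay.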

CYP3A4 = assay: CLZD_CYP3A4: Change in expression of CYP3A4 (primary human hepatocytes); type: cell-based; settings: 24 hr
Method in brief: as §3

PXR Human (NR1I2) = molecular target: T2, PXR Human (NR1I2) (Homo sapiens, UniProt O75469); assay: NCGC_PXR_Agonist_human: GAL4 BLAM Reporter gene assay: PXR Human; type: cell-based; settings: agonist mode
T2 sequence (O75469 146-434 limits assumed): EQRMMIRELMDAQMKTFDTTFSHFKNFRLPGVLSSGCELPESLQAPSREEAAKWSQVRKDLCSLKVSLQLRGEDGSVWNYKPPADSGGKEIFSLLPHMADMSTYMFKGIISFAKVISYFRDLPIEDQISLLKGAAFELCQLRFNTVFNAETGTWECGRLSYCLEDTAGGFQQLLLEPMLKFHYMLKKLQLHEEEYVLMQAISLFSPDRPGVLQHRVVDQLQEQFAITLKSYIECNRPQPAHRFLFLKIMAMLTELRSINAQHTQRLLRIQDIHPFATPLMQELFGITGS
Protocol: These assays measure binding constants and enzyme inhibition values for nuclear receptors. The targets include [drawing 67] , [drawing 68] , [drawing 69] , [drawing 70] , [drawing 71] , [drawing 72] , [drawing 73] , [drawing 74] , [drawing 75] and [drawing 76] . Each of the nuclear receptor targets was measured in agonist mode. Assays were run at the NIH Chemical Genomics Center (Rockville, MD).
Cell-based HTS Assays: These assays measuring binding constants and enzyme inhibition values for nuclear receptors. The targets include AR, ER, FXR, LXR, PPARα, PPARδ, PPARγ, RXRα, RXRβ and PXR. Each of the nuclear receptor targets was measured in both agonist and antagonist mode, but the antagonist data is still undergoing analysis due to possible interference between cytotoxicity and assay activity, so antagonist mode data were not used in the present analysis. Assays were run at the NIH Chemical Genomics Center (Rockville, MD) as part of the Tox21 collaboration. […] The R^2 was required to be ≥0.5. Values where only the highest concentration exceeded 50% activity were excluded to eliminate weak or false positives. Detailed description of the methods, data and analysis methods for this dataset will be presented in a separate publication.

Mouse Liver [2] = settings: ref ToxRefDB, cited from earlier work
Mouse Liver [3] = settings: ref ToxRefDB, cited from earlier work; remark: listed apart in the source
PXR (NR1I2) [4] = molecular target: T3, PXR (NR1I2) (Homo sapiens, UniProt O75469); assay: ATG_PXR_TRANS: Factorial reporter gene assay (HepG2); type: cell-based; set-up: endogenous in cells; host or cells: HepG2; settings: HepG2
T3 sequence (O75469 1-434): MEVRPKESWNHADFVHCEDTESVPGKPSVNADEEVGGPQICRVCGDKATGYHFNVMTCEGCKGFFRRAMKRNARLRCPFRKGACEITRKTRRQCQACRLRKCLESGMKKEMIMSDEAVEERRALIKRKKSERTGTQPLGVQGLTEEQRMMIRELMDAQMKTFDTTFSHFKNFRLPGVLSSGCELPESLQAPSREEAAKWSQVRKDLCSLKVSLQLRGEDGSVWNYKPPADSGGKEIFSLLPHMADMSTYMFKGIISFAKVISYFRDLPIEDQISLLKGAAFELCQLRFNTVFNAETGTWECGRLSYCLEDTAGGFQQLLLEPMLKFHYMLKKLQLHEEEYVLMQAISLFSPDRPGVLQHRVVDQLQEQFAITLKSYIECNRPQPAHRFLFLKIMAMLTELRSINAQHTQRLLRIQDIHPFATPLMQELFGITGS
Method in brief: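 Seven concentrations per chemical, three-fold dilutions down from the MTC, were tested in HepG2 hepatoma cells. Those cells carried a multiple reporter transcription unit library, read either as cis transcription-factor-site reporters or as a trans mammalian one-hybrid panel for nuclear receptors.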

PXR (NR1I2) [5] = molecular target: T3, PXR (NR1I2); assay: ATG_PXRE_CIS: Factorial reporter gene assay (HepG2); type: cell-based; set-up: endogenous in cells; host or cells: HepG2; settings: HepG2
Method in brief: (§4)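 HepG2 cells were transfected with a multiple reporter transcription unit (MRTU) library of 48 transcription factor binding sites for the cis-acting PXRE assay. The ERRg, FXR and PPARg assays used a trans mammalian one-hybrid system with a further 25-unit nuclear receptor MRTU library. Chemicals were tested at seven concentrations, from the MTC downward in three-fold steps.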

[6] = molecular target: T4, AHR (aryl hydrocarbon receptor) (Homo sapiens, UniProt P35869); assay: ATG_Ahr_CIS: Factorial reporter gene assay (multiplexed transcription reporter, HepG2); type: cell-based; settings: HepG2
T4 construct: endogenous in cells; host or cells: HepG2
T4 sequence (P35869 11-848): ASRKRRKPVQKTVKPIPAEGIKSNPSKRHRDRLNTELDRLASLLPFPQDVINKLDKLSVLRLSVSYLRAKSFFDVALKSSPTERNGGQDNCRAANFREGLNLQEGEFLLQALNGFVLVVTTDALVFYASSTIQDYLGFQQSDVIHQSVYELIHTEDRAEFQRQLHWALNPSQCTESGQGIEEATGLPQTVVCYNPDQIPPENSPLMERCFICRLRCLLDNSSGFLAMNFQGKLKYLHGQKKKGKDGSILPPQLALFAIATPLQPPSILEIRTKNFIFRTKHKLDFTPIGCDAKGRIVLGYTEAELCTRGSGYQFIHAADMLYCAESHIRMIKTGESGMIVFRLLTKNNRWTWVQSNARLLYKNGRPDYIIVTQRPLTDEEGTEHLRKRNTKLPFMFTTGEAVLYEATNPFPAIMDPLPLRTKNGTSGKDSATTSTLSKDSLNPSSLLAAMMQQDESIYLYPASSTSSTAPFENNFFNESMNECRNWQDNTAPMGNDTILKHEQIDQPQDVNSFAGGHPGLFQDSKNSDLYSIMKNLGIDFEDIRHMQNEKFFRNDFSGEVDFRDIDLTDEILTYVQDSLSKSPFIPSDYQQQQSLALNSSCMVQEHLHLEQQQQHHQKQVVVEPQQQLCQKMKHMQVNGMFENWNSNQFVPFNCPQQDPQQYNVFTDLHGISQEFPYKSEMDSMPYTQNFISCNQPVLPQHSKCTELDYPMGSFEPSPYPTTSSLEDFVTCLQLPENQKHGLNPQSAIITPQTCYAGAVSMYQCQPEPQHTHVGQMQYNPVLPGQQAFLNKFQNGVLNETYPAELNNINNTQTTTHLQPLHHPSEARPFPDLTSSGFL
Protocol: as §1, §2

PXR (NR1I2) [7] = molecular target: T3, PXR (NR1I2); assay: NVS_NR_hPXR: Human PXR Fluormone PXR (SXR) green (cell-free HTS); type: binding
Method in brief: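 Cell-free biochemical binding assays; chemicals first screened at a single concentration of 25 […] M in duplicate wells. Signals normalised to same-plate solvent controls as percent of neutral control, and AC50 values came from Hill-equation fits of concentration-response curves.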

Mouse Liver [8] = settings: ref ToxRefDB, cited from earlier work; remark: listed apart in the source
Rat Liver [9] = settings: ref ToxRefDB, cited from earlier work
Rat Liver [10] = settings: ref ToxRefDB, cited from earlier work; remark: listed apart in the source
Rat Liver [11] = settings: ref ToxRefDB, cited from earlier work; remark: listed apart in the source
[12] = molecular target: T5, PPARG (peroxisome proliferator-activated receptor gamma) (Homo sapiens, UniProt P37231); assay: ATG_PPARg_TRANS: Factorial reporter gene assay (HepG2); type: cell-based; settings: HepG2
T5 construct: expressed in transfected cells; host or cells: HepG2
T5 sequence (P37231 1-505): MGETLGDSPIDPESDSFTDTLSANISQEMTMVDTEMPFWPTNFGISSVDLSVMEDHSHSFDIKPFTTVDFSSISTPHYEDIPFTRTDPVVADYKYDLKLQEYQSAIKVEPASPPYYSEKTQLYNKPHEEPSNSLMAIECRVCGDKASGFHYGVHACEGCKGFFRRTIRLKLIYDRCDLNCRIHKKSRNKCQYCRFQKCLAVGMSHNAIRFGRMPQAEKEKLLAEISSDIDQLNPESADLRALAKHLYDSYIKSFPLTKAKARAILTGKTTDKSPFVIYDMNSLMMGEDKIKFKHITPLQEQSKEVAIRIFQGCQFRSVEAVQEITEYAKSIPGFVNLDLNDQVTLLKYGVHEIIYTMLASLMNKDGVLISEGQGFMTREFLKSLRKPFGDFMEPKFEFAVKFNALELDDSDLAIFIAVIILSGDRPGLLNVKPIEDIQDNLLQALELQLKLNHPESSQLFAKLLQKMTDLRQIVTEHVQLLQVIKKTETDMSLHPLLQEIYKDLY
Method in brief: as §4

T1 sequence (P03372 whole entry): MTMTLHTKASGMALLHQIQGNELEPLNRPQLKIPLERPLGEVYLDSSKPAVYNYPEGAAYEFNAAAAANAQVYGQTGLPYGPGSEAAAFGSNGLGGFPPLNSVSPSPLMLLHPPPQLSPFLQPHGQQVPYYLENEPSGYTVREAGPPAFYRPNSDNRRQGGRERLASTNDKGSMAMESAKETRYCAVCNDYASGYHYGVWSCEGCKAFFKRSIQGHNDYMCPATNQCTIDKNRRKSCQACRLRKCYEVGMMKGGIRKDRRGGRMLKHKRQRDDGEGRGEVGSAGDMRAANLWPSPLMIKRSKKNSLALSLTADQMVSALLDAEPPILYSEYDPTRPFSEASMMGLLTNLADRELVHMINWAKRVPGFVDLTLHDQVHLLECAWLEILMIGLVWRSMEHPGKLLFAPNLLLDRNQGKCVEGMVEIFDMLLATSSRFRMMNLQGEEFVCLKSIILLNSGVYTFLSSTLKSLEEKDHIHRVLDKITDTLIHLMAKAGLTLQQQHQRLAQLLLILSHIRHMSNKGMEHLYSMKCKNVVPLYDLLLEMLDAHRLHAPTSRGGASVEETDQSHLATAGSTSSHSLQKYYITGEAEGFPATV

SMILES | ATG_ERa_TRANS [1] | CLZD_CYP1A1_24 (CYP1A1) | CLZD_CYP1A2_24 (CYP1A2) | CLZD_CYP2B6_24 (CYP2B6) | CLZD_CYP3A4_24 (CYP3A4) | CHR_Mouse_Liver_1_AnyLesion (Mouse Liver [2]; mouse, chronic study) | CHR_Mouse_Liver_2_PreneoplasticLesion (Mouse Liver [3]; mouse, chronic study) | ATG_PXR_TRANS (PXR (NR1I2) [4]) | ATG_PXRE_CIS (PXR (NR1I2) [5]) | NVS_NR_hPXR (PXR (NR1I2) [7]) | also measured
CCOc1cc(Oc2ccc(C(F)(F)F)cc2Cl)ccc1[N+](=O)[O-] [r233] | 5.102 | 5.52 | 5.409 | 5.028 | 5.072 | 6 | 6 | 4.699 | 4.432 |  | NCGC_PXR_Agonist_human (PXR Human (NR1I2)): 4.683
CC1(C)C(C=C(Cl)Cl)C1C(=O)OCc1cccc(Oc2ccccc2)c1 (stereo not shown) [r242] | 4.523 |  |  | 4.991 | 5.668 | 6 | 6 |  | 4.959 | 4.444 | ATG_Ahr_CIS [6]: 4.125; CHR_Mouse_Liver_3_NeoplasticLesion (Mouse Liver [8]; mouse, chronic study): 6; CHR_Rat_Liver_1_AnyLesion (Rat Liver [9]; rat, chronic study): 6; CHR_Rat_Liver_2_PreneoplasticLesion (Rat Liver [10]; rat, chronic study): 0; CHR_Rat_Liver_3_NeoplasticLesion (Rat Liver [11]; rat, chronic study): 0
CCCCC(CC)CN1C(=O)C2C3C=CC(C3)C2C1=O (stereo not shown) [row 212] | 4.328 | 4.883 | 5.284 | 5.005 | 4.752 |  |  | 4.745 | 5.06 | 4.582 | ATG_PPARg_TRANS [12]: 4.284; CHR_Mouse_Liver_1_AnyLesion (Mouse Liver [2]; chronic mouse study, liver): 6; CHR_Mouse_Liver_2_PreneoplasticLesion (Mouse Liver [3]; chronic mouse study, liver): 6; CHR_Mouse_Liver_3_NeoplasticLesion (Mouse Liver [8]; chronic mouse study, liver): 6; CHR_Rat_Liver_1_AnyLesion (Rat Liver [9]; chronic rat study, liver): 6; CHR_Rat_Liver_2_PreneoplasticLesion (Rat Liver [10]; chronic rat study, liver): 6; CHR_Rat_Liver_3_NeoplasticLesion (Rat Liver [11]; chronic rat study, liver): 0
